Tests used:
[1] = test system: Glomerella Lagenarium (Colletotrichum Lagenarium); assay: Glomerella lagenarium (Colletotrichum lagenarium) liquid culture / cucumber / preventative (anthracnose); type: cell-based; settings: Colletotrichum orbiculare; 20 ppm in the applied formulation; liquid culture in PDB, 24° C., inhibition of growth measured photometrically 3 to 4 days after application, vs untreated; read-out: disease control
Procedure, shortened: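 Conidia from cryogenic storage were mixed into potato dextrose broth. This was added to compound diluted from DMSO into 0.025% Tween20, tested at 20 ppm. Plates were incubated in the dark at 24 °C and 96% relative humidity, and growth was read photometrically after 2–7 days as % activity versus untreated check.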

[2] = test system: Puccinia recondita f. Sp. Tritici; assay: Puccinia recondita f. sp. tritici / wheat / leaf disc preventative (brown rust); type: in vivo; settings: foliar, 168 h, 200 ppm in the applied formulation, wheat leaf segments cv. Kanzler, preventative, inoculated 1 day after application, assessed 7 to 9 days after application, vs untreated, read-out: disease control
Experimental: (§1) Leaf disks or leaf segments of various plant species are cut from plants grown in a greenhouse. The cut leaf disks or segments are placed in multiwell plates (24-well format) onto water agar. The leaf disks are sprayed with a test solution before (preventative) or after (curative) inoculation. Compounds to be tested are prepared as DMSO solutions (max. 10 mg/ml) which are diluted to the appropriate concentration with 0.025% Tween20 just before spraying. The inoculated leaf disks or segments are incubated under defined conditions (temperature, relative humidity, light, etc.) according to the respective test system. A single evaluation of disease level is carried out 3 to 14 days after inoculation, depending on the pathosystem. Percent disease control relative to the untreated check leaf disks or segments is then calculated.
Wheat leaf segments cv. Kanzler were placed on agar in multiwell plates (24-well format) and sprayed with the formulated test compound diluted in water. The leaf disks were inoculated with a spore suspension of the fungus 1 day after application. The inoculated leaf segments were incubated at 19° C. and 75% relative humidity (rh) under a light regime of 12 hours light/12 hours darkness in a climate cabinet and the activity of a compound was assessed as percent disease control compared to untreated when an appropriate level of disease damage appears in untreated check leaf segments (7 to 9 days after application).
(§2) The following compounds at 200 ppm in the applied formulation give at least 80% disease control in this test when compared to untreated control leaf disks under the same conditions, which show extensive disease development.

[3] = test system: Puccinia recondita f. Sp. Tritici; assay: Puccinia recondita f. sp. tritici / wheat / leaf disc curative (brown rust); type: in vivo; settings: foliar, 144 h, 200 ppm in the applied formulation, wheat leaf segments cv. Kanzler, applied 1 day after inoculation, assessed 6 to 8 days after application, vs untreated, read-out: disease control
Experimental: as §1
Wheat leaf segments cv. Kanzler are placed on agar in multiwell plates (24-well format). The leaf segments are then inoculated with a spore suspension of the fungus. Plates were stored in darkness at 19° C. and 75% relative humidity. The formulated test compound diluted in water was applied 1 day after inoculation. The leaf segments were incubated at 19° C. and 75% relative humidity under a light regime of 12 hours light/12 hours darkness in a climate cabinet and the activity of a compound was assessed as percent disease control compared to untreated when an appropriate level of disease damage appears in untreated check leaf segments (6 to 8 days after application).
as §2

Fc1cc(-c2noc(C(F)(F)F)n2)ccc1Cn1cc(I)cn1 [Compound 1.131, 3-[3-fluoro-4-[(4-iodopyrazol-1-yl)methyl]phenyl]-5-(trifluoromethyl)-1,2,4-oxadiazole]
≥ 80%: inhibition of growth at 20 ppm [1] | pest or weed control at 200 ppm [2] | pest or weed control at 200 ppm [3]

Fc1cc(-c2noc(C(F)(F)F)n2)ccc1Cn1cnc(Br)c1 [Compound 1.120, 3-[4-[(4-bromoimidazol-1-yl)methyl]-3-fluoro-phenyl]-5-(trifluoromethyl)-1,2,4-oxadiazole]
≥ 80%: inhibition of growth at 20 ppm [1] | pest or weed control at 200 ppm [2] | pest or weed control at 200 ppm [3]

Fc1cc(-c2noc(C(F)(F)F)n2)ccc1Cn1cc(Br)cn1 [Compound 1.132, 3-[4-[(4-bromopyrazol-1-yl)methyl]-3-fluoro-phenyl]-5-(trifluoromethyl)-1,2,4-oxadiazole]
≥ 80%: inhibition of growth at 20 ppm [1] | pest or weed control at 200 ppm [2] | pest or weed control at 200 ppm [3]

COC(=O)c1cncn1Cc1ccc(-c2noc(C(F)(F)F)n2)cc1 [Compound 1.89, methyl 3-[[4-[5-(trifluoromethyl)-1,2,4-oxadiazol-3-yl]phenyl]methyl]imidazole-4-carboxylate]
≥ 80%: inhibition of growth at 20 ppm [1] | pest or weed control at 200 ppm [2] | pest or weed control at 200 ppm [3]

COC(=O)c1ncn(Cc2ccc(-c3noc(C(F)(F)F)n3)cn2)c1C(=O)OC [Compound 1.133, dimethyl 1-[[5-[5-(trifluoromethyl)-1,2,4-oxadiazol-3-yl]-2-pyridyl]methyl]imidazole-4,5-dicarboxylate]
≥ 80%: inhibition of growth at 20 ppm [1] | pest or weed control at 200 ppm [2] | pest or weed control at 200 ppm [3]

Cn1c(=O)c2c(ncn2Cc2ccc(-c3noc(C(F)(F)F)n3)cc2)n(C)c1=O [Compound 1.81, 1,3-dimethyl-7-[[4-[5-(trifluoromethyl)-1,2,4-oxadiazol-3-yl]phenyl]methyl]purine-2,6-dione]
≥ 80%: inhibition of growth at 20 ppm [1] | pest or weed control at 200 ppm [2] | pest or weed control at 200 ppm [3]

Cc1cn(Cc2ccc(-c3noc(C(F)(F)F)n3)cc2F)cn1 [Compound 1.124, 3-[3-fluoro-4-[(4-methylimidazol-1-yl)methyl]phenyl]-5-(trifluoromethyl)-1,2,4-oxadiazole]
≥ 80%: inhibition of growth at 20 ppm [1] | pest or weed control at 200 ppm [2] | pest or weed control at 200 ppm [3]

COC(=O)c1ncn(Cc2ccc(-c3noc(C(F)(F)F)n3)cc2F)c1C(=O)OC [Compound 1.118, dimethyl 1-[[2-fluoro-4-[5-(trifluoromethyl)-1,2,4-oxadiazol-3-yl]phenyl]methyl]imidazole-4,5-dicarboxylate]
≥ 80%: inhibition of growth at 20 ppm [1] | pest or weed control at 200 ppm [2] | pest or weed control at 200 ppm [3]

FC(F)(F)c1nc(-c2ccc(Cn3cnc(Cl)c3Cl)nc2)no1 [Compound 1.137, 3-[6-[(4,5-dichloroimidazol-1-yl)methyl]-3-pyridyl]-5-(trifluoromethyl)-1,2,4-oxadiazole]
≥ 80%: inhibition of growth at 20 ppm [1] | pest or weed control at 200 ppm [2] | pest or weed control at 200 ppm [3]

FC(F)(F)c1nc(-c2ccc(Cn3cc(Cl)cn3)cc2)no1 [Compound 1.67, 3-[4-[(4-chloropyrazol-1-yl)methyl]phenyl]-5-(trifluoromethyl)-1,2,4-oxadiazole]
≥ 80%: inhibition of growth at 20 ppm [1] | pest or weed control at 200 ppm [2] | pest or weed control at 200 ppm [3]

Fc1cc(-c2noc(C(F)(F)F)n2)ccc1Cn1cnc(Cl)c1Cl [Compound 1.121, 3-[4-[(4,5-dichloroimidazol-1-yl)methyl]-3-fluoro-phenyl]-5-(trifluoromethyl)-1,2,4-oxadiazole]
≥ 80%: inhibition of growth at 20 ppm [1] | pest or weed control at 200 ppm [2] | pest or weed control at 200 ppm [3]

Cc1cn(Cc2ccc(-c3noc(C(F)(F)F)n3)cc2)cn1 [Compound 1.83, 3-[4-[(4-methylimidazol-1-yl)methyl]phenyl]-5-(trifluoromethyl)-1,2,4-oxadiazole]
≥ 80%: inhibition of growth at 20 ppm [1] | pest or weed control at 200 ppm [2] | pest or weed control at 200 ppm [3]

Reference: patent US10798941B2, “Microbiocidal oxadiazole derivatives” (SYNGENTA PARTICIPATIONS AG, priority 2016, dated 2020)
